Data taken from patent publication US7534811B2, “Cyclic onium compounds and glucosidase inhibitors” (Kinki University, priority 2003, dated 2009).

Assays:
[1] = biological target: small intestinal α-glucosidase (maltase); test: Concentration for 50% inhibition, small intestinal α-glucosidase, maltose substrate; format: biochemical; conditions: rat intestinal brush border membrane vesicles; substrate maltose (74 mM); pH6.0; 37° C., 30 minutes
Procedure: (§1) Rat intestinal brush border membrane vesicles were prepared, and a suspension in a 0.1M maleic acid salt buffer solution (pH6.0) was used as small intestinal α-glucosidase (maltase and saccharase).
(§2) 0.05 ml of sample compound solutions of differing concentration were added, respectively, to 0.1 ml of a substrate solution of sucrose (74 mM) and maltose (74 mM), and the solution was preheated at 37° C. for 2 to 3 minutes. 0.05 ml of an enzymatic solution was added thereto and the solution was allowed to incubate for 30 minutes. After incubation, 0.8 ml of water was added thereto and the solution was heated in a boiling water bath for 2 minutes to deactivate the enzyme. Blank was prepared as follows. After the enzymatic solution was added to each sample, water was immediately added, and the resulting mixture was heated in a boiling water bath for 2 minutes to deactivate the enzyme. The amount of d-glucose formed therein was measured using a glucose oxidase method. The substrate and test samples were dissolved in a 0.1M maleic acid buffer solution (pH6.0). The concentrations for 50% inhibition (IC50) were calculated based on the values obtained.

[2] = biological target: T1, small intestinal α-glucosidase (saccharase) (Rattus norvegicus, UniProt P23739); test: Concentration for 50% inhibition, small intestinal α-glucosidase, sucrose substrate; format: biochemical; conditions: rat intestinal brush border membrane vesicles; substrate sucrose (74 mM); pH6.0; 37° C., 30 minutes; read-out: IC50 (μg/ml) Sucrose (converted)
T1 construct: Rat intestinal brush border membrane vesicles were prepared; from tissue; host or cells: rat small intestine, brush border membrane vesicles
T1 sequence (P23739 whole entry): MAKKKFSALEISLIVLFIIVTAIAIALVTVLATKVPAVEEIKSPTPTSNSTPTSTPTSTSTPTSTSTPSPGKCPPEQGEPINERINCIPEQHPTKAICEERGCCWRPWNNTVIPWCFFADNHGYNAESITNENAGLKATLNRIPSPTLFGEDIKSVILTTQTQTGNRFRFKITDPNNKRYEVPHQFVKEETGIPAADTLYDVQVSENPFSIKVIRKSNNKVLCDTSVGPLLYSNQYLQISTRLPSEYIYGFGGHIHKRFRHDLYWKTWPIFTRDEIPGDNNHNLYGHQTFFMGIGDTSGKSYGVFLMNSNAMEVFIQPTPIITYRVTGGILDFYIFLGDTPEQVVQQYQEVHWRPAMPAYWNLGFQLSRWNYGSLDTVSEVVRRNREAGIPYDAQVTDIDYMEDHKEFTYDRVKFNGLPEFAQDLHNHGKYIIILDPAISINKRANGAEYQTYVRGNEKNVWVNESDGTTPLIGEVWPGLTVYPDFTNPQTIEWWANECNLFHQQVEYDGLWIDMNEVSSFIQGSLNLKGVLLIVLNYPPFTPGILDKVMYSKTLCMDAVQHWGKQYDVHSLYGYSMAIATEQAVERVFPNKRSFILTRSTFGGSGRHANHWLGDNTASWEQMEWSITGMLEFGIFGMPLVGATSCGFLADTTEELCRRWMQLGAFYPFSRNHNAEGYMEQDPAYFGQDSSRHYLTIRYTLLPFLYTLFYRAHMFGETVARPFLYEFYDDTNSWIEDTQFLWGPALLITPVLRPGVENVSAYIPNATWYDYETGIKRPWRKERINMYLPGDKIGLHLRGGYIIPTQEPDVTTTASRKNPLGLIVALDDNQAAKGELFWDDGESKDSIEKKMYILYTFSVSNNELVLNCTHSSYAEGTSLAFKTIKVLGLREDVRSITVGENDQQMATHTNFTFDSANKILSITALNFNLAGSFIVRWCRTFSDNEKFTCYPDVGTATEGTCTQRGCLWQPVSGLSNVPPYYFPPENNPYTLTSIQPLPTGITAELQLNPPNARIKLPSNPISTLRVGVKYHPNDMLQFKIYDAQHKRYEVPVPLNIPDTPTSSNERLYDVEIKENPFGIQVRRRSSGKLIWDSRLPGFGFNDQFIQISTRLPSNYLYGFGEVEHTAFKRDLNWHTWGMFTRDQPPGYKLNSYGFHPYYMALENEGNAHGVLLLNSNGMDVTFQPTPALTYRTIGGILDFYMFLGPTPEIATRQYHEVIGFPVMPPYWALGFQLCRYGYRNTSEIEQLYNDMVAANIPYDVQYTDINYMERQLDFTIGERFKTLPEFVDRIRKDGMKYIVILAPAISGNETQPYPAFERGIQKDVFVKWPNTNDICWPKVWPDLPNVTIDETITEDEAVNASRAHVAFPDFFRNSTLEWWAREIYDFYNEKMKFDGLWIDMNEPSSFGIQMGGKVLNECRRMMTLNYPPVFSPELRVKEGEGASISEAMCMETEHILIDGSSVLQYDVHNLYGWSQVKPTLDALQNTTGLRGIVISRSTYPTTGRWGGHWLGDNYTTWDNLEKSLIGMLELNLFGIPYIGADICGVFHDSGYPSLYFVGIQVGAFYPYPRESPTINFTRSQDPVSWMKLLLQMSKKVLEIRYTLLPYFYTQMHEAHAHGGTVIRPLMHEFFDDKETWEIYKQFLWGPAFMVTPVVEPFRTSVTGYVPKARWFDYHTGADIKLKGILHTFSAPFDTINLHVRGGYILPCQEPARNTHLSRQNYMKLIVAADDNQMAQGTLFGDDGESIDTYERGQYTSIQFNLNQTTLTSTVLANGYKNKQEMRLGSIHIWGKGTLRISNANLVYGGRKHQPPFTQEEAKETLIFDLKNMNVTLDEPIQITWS
Procedure: as §1, §2

SMILES | IC50 (μg/ml) Maltose [1] [µg/mL] | IC50 [2] [µM]
OC[C@@H]1[C@@H](O)[C@H](O)C[S@@+]1C[C@@H](O)[C@@H](O)CO [Compound 1] | 5.71 | 5.29
C[S+]1C[C@H](O)[C@@H](O)[C@@H]1CO (stereo partly shown) [Compound 2] | 79.3 | 339
